Like-named read-outs stand apart in the source and are kept apart here.
Tests used:
JAK1 = JAK1 (Homo sapiens (Human), UniProt P23458); assay: Jak biochemical HTRF assay, JAK1
JAK2 = JAK2 (Homo sapiens (Human), UniProt O60674); assay: Jak biochemical HTRF assay, JAK2
[1] = JAK1 IC50 (nM), recombinant GST-tagged catalytic domain, [ATP] 31.8 μM
[2] = JAK2 IC50 (nM), recombinant GST-tagged catalytic domain, [ATP] […]
[3] = read-out: JAK1 IC50, recombinant GST-tagged catalytic domain, [ATP] 31.8 μM
[4] = read-out: JAK2 IC50, recombinant GST-tagged catalytic domain, [ATP] […]

JAK1, sequence (P23458 875-1153): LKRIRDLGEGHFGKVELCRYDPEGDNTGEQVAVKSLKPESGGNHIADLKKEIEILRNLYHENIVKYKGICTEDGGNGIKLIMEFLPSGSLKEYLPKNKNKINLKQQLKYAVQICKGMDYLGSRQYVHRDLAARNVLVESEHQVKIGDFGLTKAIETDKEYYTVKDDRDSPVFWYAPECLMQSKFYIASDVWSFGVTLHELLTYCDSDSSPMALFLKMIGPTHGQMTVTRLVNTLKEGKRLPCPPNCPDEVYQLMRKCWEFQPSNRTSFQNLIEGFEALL
JAK2, sequence (O60674 849-1124): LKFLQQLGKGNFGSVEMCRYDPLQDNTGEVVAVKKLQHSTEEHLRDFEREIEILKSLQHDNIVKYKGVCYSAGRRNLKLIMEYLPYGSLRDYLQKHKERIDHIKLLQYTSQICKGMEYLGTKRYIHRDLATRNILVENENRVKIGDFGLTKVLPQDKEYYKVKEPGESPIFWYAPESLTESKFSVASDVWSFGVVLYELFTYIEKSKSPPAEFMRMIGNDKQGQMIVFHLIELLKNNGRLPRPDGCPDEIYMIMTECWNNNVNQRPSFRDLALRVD

Molecule	IC50 (JAK1; [1])	IC50 (JAK2; [2])	IC50 (JAK1; [3])	IC50 (JAK2; [4])
CC(C)(C)OC(=O)N1CCC(C(CC#N)n2cc(C(N)=O)c(Nc3ccc(F)cc3)n2)CC1 (single isomer, unassigned) [Example 14-3, tert-butyl 4-[(1S or 1R)-1-{4-carbamoyl-3-[(4-fluorophenyl)amino]-1H-pyrazol-1-yl}-2-cyanoethyl)piperidine-1-carboxylate]	92 nM	903 nM		
CC(C)C(CC#N)n1cc(C(N)=O)c(Nc2ccccc2)n1 (centres unmarked) [Example 1-11, 1-[1-(cyanomethyl)-2-methylpropyl]-3-(phenylamino)-1H-pyrazole-4-carboxamide]	64 nM	641 nM		
1-[(1R or 1S)-2-cyano-1-cyclopropylethyl]-3-{[4-(methylsulfonyl)phenyl]amino}-1H-pyrazole-4-carboxamide [Example 14-1]			1 nM	8 nM
Cc1nc(-c2ccc(Nc3nn(C(CC#N)C4CC4)cc3C(N)=O)cc2)no1 (centres unmarked) [Example 4-26, 1-(2-cyano-1-cyclopropylethyl)-3-{[4-(5-methyl-1,2,4-oxadiazol-3-yl)phenyl]amino}-1H-pyrazole-4-carboxamide]	65 nM	277 nM		
CC[C@H](CC#N)n1cc(C(N)=O)c(Nc2ccccc2)n1 (single isomer, unassigned) [Example 16-1, 1-[(1R or 1S)-1-(cyanomethyl)propyl]-3-(phenylamino)-1H-pyrazole-4-carboxamide]			43 nM	578 nM
N#CCC(C1CC1)n1cc(C(N)=O)c(Nc2cccc(C(F)(F)F)c2)n1 (centres unmarked) [Example 4-4, 1-(2-cyano-1-cyclopropylethyl)-3-{[3-(trifluoromethyl)phenyl]amino}-1H-pyrazole-4-carboxamide]	82 nM	394 nM		
CC(C)(C)OC(=O)N1CCC(C(CC#N)n2cc(C(N)=O)c(Nc3ccc(F)cc3)n2)CC1 (centres unmarked) [Example 3-1, tert-Butyl 4-(1-[4-carbamoyl-3-[(4-fluorophenyl)amino]-1H-pyrazol-1-yl]-2-cyanoethyl)piperidine-1-carboxylate]	49 nM	1500 nM		
CC(CC#N)(C1CC1)n1cc(C(N)=O)c(Nc2ccccc2)n1 (centres unmarked) [Example 1-18, 1-(2-cyano-1-cyclopropyl-1-methylethyl)-3-(phenylamino)-1H-pyrazole-4-carboxamide]	195 nM	413 nM		
1-[(1R or 1S)-2-cyano-1-cyclopropylethyl]-3-{[4-(methylsulfonyl)phenyl]amino}-1H-pyrazole-4-carboxamide [Example 14-2]			5 nM	55 nM
N#CCC(C1CCOCC1)n1cc(C(N)=O)c(Nc2ccccc2)n1 (centres unmarked) [Example 1-9, 1-[2-cyano-1-(tetrahydro-2H-pyran-4-yl)ethyl]-3-(phenylamino)-1H-pyrazole-4-carboxamide]	241 nM	1480 nM		
N#CCC(C1CC1)n1cc(C(N)=O)c(Nc2ccnc(Cl)c2)n1 (centres unmarked) [Example 4-27, 3-[(2-chloropyridin-4-yl)amino]-1-(2-cyano-1-cyclopropylethyl)-1H-pyrazole-4-carboxamide]	166 nM	290 nM		
N#CCC(n1cc(C(N)=O)c(Nc2ccccc2)n1)C(F)(F)F (centres unmarked) [Example 2, 1-(3-Cyano-1,1,1-trifluoropropan-2-yl)-3-(phenylamino)-1H-pyrazole-4-carboxamide]	124 nM	339 nM		
CC(OC(=O)N1CCC([C@H](CC#N)n2cc(C(N)=O)c(Nc3ccc(F)cc3)n2)CC1)C(F)(F)F (stereo partly drawn) [Example 11-11, 2,2,2-trifluoro-1-methylethyl 4-[(1S)-1-{4-carbamoyl-3-[(4-fluorophenyl)amino]-1H-pyrazol-1-yl}-2-cyanoethyl]piperidine-1-carboxylate]	46 nM	1040 nM		
C[C@@H](C#N)[C@H](C)n1cc(C(N)=O)c(Nc2ccccc2)n1 (mixture of isomers) [Example 1-23, 1-((2S, 3R and 2R, 3S)-3-cyclobutan-2-yl)-3-(phenylamino)-1H-pyrazole-4-carboxamide]	123 nM	413 nM		
CC[C@@H](CC#N)n1cc(C(N)=O)c(Nc2ccccc2)n1 (single isomer, unassigned) [Example 16-2, 1-[(1R or 1S)-1-(cyanomethyl)propyl]-3-(phenylamino)-1H-pyrazole-4-carboxamide]			136 nM	800 nM
CC(C)(C)OC(=O)N1CCC(F)(C(CC#N)n2cc(C(N)=O)c(Nc3ccccc3)n2)CC1 (centres unmarked) [Example 3-2, tert-butyl 4-{1-[4-carbamoyl-3-(phenylamino)-1H-pyrazol-1-yl]-2-cyanoethyl}-4-fluoropiperidine-1-carboxylate]	99 nM	1500 nM		
N#CCC(C1CC1)n1cc(C(N)=O)c(Nc2ccccc2F)n1 (centres unmarked) [Example 4-5, 1-(2-cyano-1-cyclopropylethyl)-3-[(2-fluorophenyl)amino]-1H-pyrazole-4-carboxamide]	360 nM	1480 nM		

Other lines, results leading:

IC50 (JAK1; [1])	IC50 (JAK2; [2])	IC50 (JAK1; [3])	IC50 (JAK2; [4])	Molecule
1 nM	23 nM			CN1Cc2cc(Nc3nn(C(CC#N)C4CC4)cc3C(N)=O)ccc2C1=O (centres unmarked) [Example 4-33, 1-(2-cyano-1-cyclopropylethyl)-3-[(2-methyl-1-oxo-2,3-dihydro-1H-isoindol-5-yl)amino]-1H-pyrazole-4-carboxamide]
2 nM	13 nM			N#CCC(C1CC1)n1cc(C(N)=O)c(Nc2ccc(S(=O)(=O)C(F)F)cc2)n1 (centres unmarked) [Example 4-29, 1-(2-cyano-1-cyclopropylethyl)-3-({4-[(difluoromethyl)sulfonyl]phenyl}amino)-1H-pyrazole-4-carboxamide]
5 nM	44 nM			N#CCC(C1CC1)n1cc(C(N)=O)c(Nc2ccnc(F)c2)n1 (centres unmarked) [Example 4-37, 1-(2-cyano-1-cyclopropylethyl)-3-[(2-fluoropyridin-4-yl)amino]-1H-pyrazole-4-carboxamide]
16 nM	190 nM			N#CC[C@@H](C1CC1)n1cc(C(N)=O)c(Nc2ccnc(F)c2)n1 (single isomer, unassigned) [Example 17-5, 1-[(1R or 1S)-2-cyano-1-cyclopropylethyl]-3-[(2-fluoropyridin-4-yl)amino]-1H-pyrazole-4-carboxamide]
12 nM	103 nM			CC(C)(CC#N)n1cc(C(N)=O)c(Nc2ccccc2)n1 [Example 1-21, 1-(2-cyano-1,1-dimethylethyl)-3-(phenylamino)-1H-pyrazole-4-carboxamide]
24 nM	87 nM			N#CCC(C1CC1)n1cc(C(N)=O)c(Nc2ccc3c(c2)OCCO3)n1 (centres unmarked) [Example 4-20, 1-(2-cyano-1-cyclopropylethyl)-3-(2,3-dihydro-1,4-benzodioxin-6-ylamino)-1H-pyrazole-4-carboxamide]
2 nM	35 nM			CC(C)(C)OC(=O)N1Cc2cc(Nc3nn(C(CC#N)C4CC4)cc3C(N)=O)ccc2C1=O (centres unmarked) [Example 4-2, tert-butyl 5-{[4-carbamoyl-1-(2-cyano-1-cyclopropylethyl)-1H-pyrazol-3-yl]amino}-1-oxo-1,3-dihydro-2H-isoindole-2-carboxylate]
9 nM	66 nM			N#CCC(C1CC1)n1cc(C(N)=O)c(Nc2ccc(F)cc2)n1 (stereo not drawn) [Example 4-11, l-(2-cyano-1-cyclopropylethyl)-3-[(4-fluorophenyl)amino]-1H-pyrazole-4-carboxamide]
3 nM	16 nM			CN(C)C(=O)c1ccc(Nc2nn(C(CC#N)C3CC3)cc2C(N)=O)cc1 (centres unmarked) [Example 4-22, 1-(2-cyano-1-cyclopropylethyl)-3-{[4-(dimethylcarbamoyl)phenyl]amino}-1H-pyrazole-4-carboxamide]
12 nM	110 nM			N#CCC(C1CC1)n1cc(C(N)=O)c(Nc2ccc(C(F)(F)F)cc2)n1 (centres unmarked) [Example 4-3, 1-(2-cyano-1-cyclopropylethyl)-3-{[4-(trifluoromethyl)phenyl]amino}-1H-pyrazole-4-carboxamide]
1 nM	34 nM			N#CCC(C1CC1)n1cc(C(N)=O)c(Nc2ccc3c(c2)CN(CC(=O)O)C3=O)n1 (centres unmarked) [Example 8, (5-{[4-Carbamoyl-1-(2-cyano-1-cyclopropylethyl)-1H-pyrazol-3-yl]amino}-1-oxo-1,3-dihydro-2H-isoindol-2-yl)acetic acid]
5 nM	33 nM			N#CCC(C1CC1)n1cc(C(N)=O)c(Nc2ccc(C#N)cc2)n1 (centres unmarked) [Example 4-14, 1-(2-cyano-1-cyclopropylethyl)-3-[(4-cyanophenyl)amino]-1H-pyrazole-4-carboxamide]
3 nM	28 nM			CS(=O)(=O)c1ccc(Nc2nn(C(CC#N)C3CC3)cc2C(N)=O)cc1 (centres unmarked) [Example 4-1, 1-(2-Cyano-1-cyclopropylethyl)-3-{[4-(methylsulfonyl)phenyl]amino}-1H-pyrazole-4-carboxamide]
33 nM	76 nM			N#CCC(C1CC1)n1cc(C(N)=O)c(Nc2cccnc2)n1 (centres unmarked) [Example 4-6, 1-(2-cyano-1-cyclopropylethyl)-3 - (pyridin-3-ylamino)-1H-pyrazole-4-carboxamide]
31 nM	272 nM			N#CCC(C1CCC1)n1cc(C(N)=O)c(Nc2ccccc2)n1 (centres unmarked) [Example 1-19, 1-(2-cyano-1-cydobutylethyl)-3-(phenylamino)-1H-pyrazole-4-carboxamide]
5 nM	39 nM			Cc1noc(-c2ccc(Nc3nn(C(CC#N)C4CC4)cc3C(N)=O)cc2)n1 (centres unmarked) [Example 4-36, 1-(2-cyano-1-cyclopropylethyl)-3-{[4-(3-methyl-1,2,4-oxadiazol-5-yl)phenyl]amino}-1H-pyrazole-4-carboxamide]
9 nM	39 nM			N#CCC(C1CC1)n1cc(C(N)=O)c(Nc2ccc3ccncc3c2)n1 (centres unmarked) [Example 4-15, 1-(2-cyano-1-cyclopropylethyl)-3-(isoquinolin-7-ylamino)-1H-pyrazole-4-carboxamide]
